Experimental data from article PMC5896380, “Selective imaging of cathepsin L in breast cancer by fluorescent activity-based probes” (Chemical Science, 2018).
Non-standard residues stand in square brackets, D forms with d. *: point of attachment. Phe(3-Cl) = N[C@@H](Cc1cccc(Cl)c1)C(=O)O; ACC = NC(=O)Cc1cc(=O)oc2cc(N*)ccc12; hArg = N=C(N)NCCCC[C@H](N)C(=O)O; ClZ = O=C(OCc1ccccc1Cl)*; Orn = NCCC[C@H](N)C(=O)O; Dap = NC[C@H](N)C(=O)O; Mob = COc1ccc(C*)cc1; Meb = Cc1ccc(C*)cc1; OBn = c1ccc(CO*)cc1; Bn = c1ccc(C*)cc1

Biological target: T1, cathepsin L (Homo sapiens, UniProt P07711)
T1 construct: made in house
T1 sequence (P07711 114-333): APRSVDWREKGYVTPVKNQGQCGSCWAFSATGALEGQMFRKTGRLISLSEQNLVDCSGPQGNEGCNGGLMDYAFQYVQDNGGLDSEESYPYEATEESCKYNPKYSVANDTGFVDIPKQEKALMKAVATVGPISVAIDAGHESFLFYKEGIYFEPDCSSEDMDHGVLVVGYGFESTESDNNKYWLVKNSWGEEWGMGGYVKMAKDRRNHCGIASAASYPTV
Assay: Kinetic parameters of ACC substrates with cathepsin L
Type: biochemical
Conditions: for Km: read-out: KM
Protocol: All kinetic experiments were performed using fMax (Molecular Devices) and CLARIOStar (BMG LABTECH) spectrofluorimeters operating in kinetic mode using 96-well plates. ACC-labeled substrates were screened using 355 nm and 460 nm wavelengths (excitation and emission, respectively). […] The buffer was prepared at room temperature and the enzyme kinetic studies were performed at 37 °C.
Classic substrate velocity plots were analyzed according to Michaelis–Menten kinetics and a detailed protocol for the determination of kinetic parameters for ACC-tagged substrates is found elsewhere.[56] […] Experiments were repeated at least three times and results are presented as an average. The SDs were below 15%.

[1] = Fig. 4B, ACC substrates, 100 mM sodium acetate, 100 mM NaCl, 10 mM DTT, 1 mM EDTA, pH 5.5, 37 °C, cathepsin L 0.1–0.5 nM, average of at least three, SD below 15%
[2] = Table S2, cathepsin L, four independent experiments, S.D. below 15%

| Substance | kcat/KM [1] | kcat [2] | kcat/KM [2] | Km [2] | hydrolysis by cathepsin L relative to Ac-His-Arg-Phe-Arg-ACC substrate (kcat/KM compared with reference substrate) |
| --- | --- | --- | --- | --- | --- |
| Ac-[Dap]R[Phe(3-Cl)]R-{ACC} (SMILES CC(=O)N[C@@H](CN)C(=O)N[C@@H](CCCNC(=N)N)C(=O)N[C@@H](Cc1cccc(Cl)c1)C(=O)N[C@@H](CCCNC(=N)N)C(=O)Nc1ccc2c(CC(N)=O)cc(=O)oc2c1) | 25,400,000 M^-1s^-1 | – | – | – | – |
| Ac-[Dap][Orn][Phe(3-Cl)]C(Bn)-{ACC} (SMILES CC(=O)N[C@@H](CN)C(=O)N[C@@H](CCCN)C(=O)N[C@@H](Cc1cccc(Cl)c1)C(=O)N[C@@H](CSCc1ccccc1)C(=O)Nc1ccc2c(CC(N)=O)cc(=O)oc2c1) | 45,420,000 M^-1s^-1 | 191 s⁻¹ | 45,420,000 M-1s-1 | 4.28 µM | – |
| Ac-[Dap][Orn][Phe(3-Cl)]C(Meb)-{ACC} (SMILES CC(=O)N[C@@H](CN)C(=O)N[C@@H](CCCN)C(=O)N[C@@H](Cc1cccc(Cl)c1)C(=O)N[C@@H](CSCc1ccc(C)cc1)C(=O)Nc1ccc2c(CC(N)=O)cc(=O)oc2c1) | 41,660,000 M^-1s^-1 | 207 s⁻¹ | – | 4.99 µM | – |
| Ac-[Dap][Orn][Phe(3-Cl)]C(Mob)-{ACC} (SMILES COc1ccc(CSC[C@H](NC(=O)[C@H](Cc2cccc(Cl)c2)NC(=O)[C@H](CCCN)NC(=O)[C@H](CN)NC(C)=O)C(=O)Nc2ccc3c(CC(N)=O)cc(=O)oc3c2)cc1) | 48,350,000 M^-1s^-1 | 193 s⁻¹ | – | 4.15 µM | ~4 times |
| Ac-[Dap][Orn][Phe(3-Cl)]E(OBn)-{ACC} (SMILES CC(=O)N[C@@H](CN)C(=O)N[C@@H](CCCN)C(=O)N[C@@H](Cc1cccc(Cl)c1)C(=O)N[C@@H](CCC(=O)OCc1ccccc1)C(=O)Nc1ccc2c(CC(N)=O)cc(=O)oc2c1) | 34,270,000 M^-1s^-1 | 188 s⁻¹ | 34,270,000 M-1s-1 | 5.67 µM | – |
| Ac-[Dap][Orn][Phe(3-Cl)]K(ClZ)-{ACC} (SMILES CC(=O)N[C@@H](CN)C(=O)N[C@@H](CCCN)C(=O)N[C@@H](Cc1cccc(Cl)c1)C(=O)N[C@@H](CCCCNC(=O)OCc1ccccc1Cl)C(=O)Nc1ccc2c(CC(N)=O)cc(=O)oc2c1) | 29,280,000 M^-1s^-1 | 86.7 s⁻¹ | 29,280,000 M-1s-1 | 2.98 µM | – |
| Ac-[Dap][Orn][Phe(3-Cl)]K-{ACC} (SMILES CC(=O)N[C@@H](CN)C(=O)N[C@@H](CCCN)C(=O)N[C@@H](Cc1cccc(Cl)c1)C(=O)N[C@@H](CCCCN)C(=O)Nc1ccc2c(CC(N)=O)cc(=O)oc2c1) | 19,810,000 M^-1s^-1 | 141 s⁻¹ | 19,810,000 M-1s-1 | 7.11 µM | – |
| Ac-[Dap][Orn][Phe(3-Cl)]L-{ACC} (SMILES CC(=O)N[C@@H](CN)C(=O)N[C@@H](CCCN)C(=O)N[C@@H](Cc1cccc(Cl)c1)C(=O)N[C@@H](CC(C)C)C(=O)Nc1ccc2c(CC(N)=O)cc(=O)oc2c1) | 11,290,000 M^-1s^-1 | 41.8 s⁻¹ | 11,290,000 M-1s-1 | 3.7 µM | – |
| Ac-[Dap][Orn][Phe(3-Cl)]R-{ACC} (SMILES CC(=O)N[C@@H](CN)C(=O)N[C@@H](CCCN)C(=O)N[C@@H](Cc1cccc(Cl)c1)C(=O)N[C@@H](CCCNC(=N)N)C(=O)Nc1ccc2c(CC(N)=O)cc(=O)oc2c1) | 36,310,000 M^-1s^-1 | 195 s⁻¹ | 36,310,000 M-1s-1 | 5.38 µM | – |
| Ac-[Dap][Orn][Phe(3-Cl)][hArg]-{ACC} (SMILES CC(=O)N[C@@H](CN)C(=O)N[C@@H](CCCN)C(=O)N[C@@H](Cc1cccc(Cl)c1)C(=O)N[C@@H](CCCCNC(=N)N)C(=O)Nc1ccc2c(CC(N)=O)cc(=O)oc2c1) | 30,500,000 M^-1s^-1 | 123 s⁻¹ | 30,500,000 M-1s-1 | 4.21 µM | – |
